Source: the supplement of paper PMC10307832

Legend:
Assay in all cases: relative viability (nuclei count vs DMSO), 5 days (fraction); higher = more cells survive
CAP-232 + Palbociclib = compound: C[C@H]([C@@H](C(=O)N)NC(=O)[C@@H]1CSSC[C@@H](C(=O)N[C@H](C(=O)N[C@@H](C(=O)N[C@H](C(=O)N1)CCCCN)CC2=CNC3=CC=CC=C32)CC4=CC=C(C=C4)O)NC(=O)[C@@H](CC5=CC=CC=C5)N)O [CAP-232] + CC(=O)c1c(C)c2cnc(Nc3ccc(N4CCNCC4)cn3)nc2n(C2CCCC2)c1=O [Palbociclib] (partner 0.5 µM)
Procedure, shortened: (§1)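 Lung cancer cell lines in 1536-well plates were dosed by pin tool the day after seeding, either with one drug alone or with a fixed anchor-drug dose plus five library-drug doses (not always all listed) in √10 steps. After 5 days, cells were fixed and their nuclei stained in one step (final 0.05% Triton X-100, 1% formaldehyde, 1 ug/ml Hoechst), then counted on 4× images. Relative viability is the nuclei count in treated wells divided by that in vehicle wells. Values are medians of duplicate plates.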

CAP-232 + Olaparib = compound: C[C@H]([C@@H](C(=O)N)NC(=O)[C@@H]1CSSC[C@@H](C(=O)N[C@H](C(=O)N[C@@H](C(=O)N[C@H](C(=O)N1)CCCCN)CC2=CNC3=CC=CC=C32)CC4=CC=C(C=C4)O)NC(=O)[C@@H](CC5=CC=CC=C5)N)O [CAP-232] + O=C(c1cc(Cc2n[nH]c(=O)c3ccccc23)ccc1F)N1CCN(C(=O)C2CC2)CC1 [Olaparib] (partner 8 µM)
Procedure, shortened: as §1

CAP-232 + Pemetrexed = compound: C[C@H]([C@@H](C(=O)N)NC(=O)[C@@H]1CSSC[C@@H](C(=O)N[C@H](C(=O)N[C@@H](C(=O)N[C@H](C(=O)N1)CCCCN)CC2=CNC3=CC=CC=C32)CC4=CC=C(C=C4)O)NC(=O)[C@@H](CC5=CC=CC=C5)N)O [CAP-232] + Nc1nc2[nH]cc(CCc3ccc(C(=O)N[C@@H](CCC(=O)O)C(=O)O)cc3)c2c(=O)[nH]1 [Pemetrexed] (partner 0.2 µM)
Procedure, shortened: as §1

CAP-232 + Phenformin = compound: C[C@H]([C@@H](C(=O)N)NC(=O)[C@@H]1CSSC[C@@H](C(=O)N[C@H](C(=O)N[C@@H](C(=O)N[C@H](C(=O)N1)CCCCN)CC2=CNC3=CC=CC=C32)CC4=CC=C(C=C4)O)NC(=O)[C@@H](CC5=CC=CC=C5)N)O [CAP-232] + N=C(N)NC(=N)NCCc1ccccc1 [Phenformin] (partner 250 µM)
Procedure, shortened: as §1

CAP-232 + Lapatinib = compound: C[C@H]([C@@H](C(=O)N)NC(=O)[C@@H]1CSSC[C@@H](C(=O)N[C@H](C(=O)N[C@@H](C(=O)N[C@H](C(=O)N1)CCCCN)CC2=CNC3=CC=CC=C32)CC4=CC=C(C=C4)O)NC(=O)[C@@H](CC5=CC=CC=C5)N)O [CAP-232] + CS(=O)(=O)CCNCc1ccc(-c2ccc3ncnc(Nc4ccc(OCc5cccc(F)c5)c(Cl)c4)c3c2)o1 [Lapatinib] (partner 2 µM)
Procedure, shortened: as §1

| Cell Line | relative viability (CAP-232 + Palbociclib; first compound 0.4 µM) | relative viability (CAP-232 + Palbociclib; first compound 1.265 µM) | relative viability (CAP-232 + Palbociclib; first compound 4 µM) | relative viability (CAP-232 + Palbociclib; first compound 12.65 µM) | relative viability (CAP-232 + Olaparib; first compound 0.4 µM) | relative viability (CAP-232 + Olaparib; first compound 1.265 µM) | relative viability (CAP-232 + Olaparib; first compound 4 µM) | relative viability (CAP-232 + Olaparib; first compound 12.65 µM) | relative viability (CAP-232 + Pemetrexed; first compound 0.4 µM) | relative viability (CAP-232 + Pemetrexed; first compound 1.265 µM) | relative viability (CAP-232 + Pemetrexed; first compound 4 µM) | relative viability (CAP-232 + Pemetrexed; first compound 12.65 µM) | relative viability (CAP-232 + Phenformin; first compound 0.4 µM) | relative viability (CAP-232 + Phenformin; first compound 1.265 µM) | relative viability (CAP-232 + Phenformin; first compound 4 µM) | relative viability (CAP-232 + Phenformin; first compound 12.65 µM) | relative viability (CAP-232 + Lapatinib; first compound 0.4 µM) | relative viability (CAP-232 + Lapatinib; first compound 1.265 µM) | relative viability (CAP-232 + Lapatinib; first compound 4 µM) | relative viability (CAP-232 + Lapatinib; first compound 12.65 µM) |
| --- | --- | --- | --- | --- | --- | --- | --- | --- | --- | --- | --- | --- | --- | --- | --- | --- | --- | --- | --- | --- |
| HCC-44 | 1 | 1.05 | 0.92 | 0.937 | 0.99 | 0.975 | 0.943 | 1.04 | 0.648 | 0.622 | 0.626 | 0.686 | 0.392 | 0.128 | 0.194 | 0.171 | 1.14 | 1.03 | 1.05 | 0.987 |
| HCC-78 | 0.481 | 0.496 | 0.552 | 0.49 | 0.852 | 0.863 | 1.08 | 0.924 | 0.939 | 0.912 | 0.901 | 0.899 | 0.859 | 0.806 | 0.746 | 0.54 | 0.809 | 0.338 | 0.878 | 0.695 |
| HCC-366 | 0.454 | 0.362 | 0.41 | 0.331 | 0.4 | 0.383 | 0.289 | 0.299 | 0.201 | 0.175 | 0.202 | 0.17 | 0.6 | 0.588 | 0.66 | 0.631 | 1.17 | 1.05 | 1.02 | 1 |
| HCC-827 | 0.423 | 0.498 | 0.461 | 0.514 | 0.699 | 0.627 | 0.622 | 0.672 | 0.266 | 0.277 | 0.222 | 0.231 | 0.409 | 0.384 | 0.387 | 0.418 | 0.224 | 0.175 | 0.177 | 0.177 |
| HOP-62 | 0.491 | 0.42 | 0.436 | 0.386 | 1.08 | 0.388 | 0.604 | 0.709 | 0.331 | 0.322 | 0.341 | 0.295 | 0.71 | 0.675 | 0.72 | 0.55 | 1.06 | – | 1.33 | 0.996 |
| IA-LM | – | – | – | – | 0.784 | 0.86 | 0.993 | 0.405 | – | – | – | – | – | – | – | – | 0.79 | 0.705 | 0.928 | 0.292 |
| LC-2-ad | 0.478 | 0.517 | 0.473 | 0.513 | 0.726 | 0.738 | 0.768 | 0.7 | 0.278 | 0.269 | 0.287 | 0.228 | 0.707 | 0.514 | 0.603 | 0.257 | 1.07 | 0.891 | 0.949 | 1.09 |
| LCLC-97TM1 | 0.243 | 0.22 | 0.187 | 0.248 | 0.418 | 0.421 | 0.346 | 0.438 | 0.192 | 0.16 | 0.167 | 0.183 | 0.462 | 0.387 | 0.463 | 0.422 | 1.13 | 1.15 | 1.05 | 0.946 |
| LCLC-103H | 0.469 | 0.429 | 0.487 | 0.485 | 0.882 | 0.752 | 0.733 | 0.751 | 0.443 | 0.441 | 0.431 | 0.445 | 0.368 | 0.342 | 0.315 | 0.325 | – | – | – | – |
| NCI-H441 | 0.209 | 0.19 | 0.257 | 0.214 | 0.482 | 0.551 | 0.595 | 0.429 | 0.25 | 0.234 | 0.281 | 0.262 | 0.82 | 0.897 | 0.982 | 0.864 | – | – | – | – |
| NCI-H522 | 0.982 | 0.929 | 1.05 | 0.848 | 0.78 | 0.587 | 0.638 | 0.789 | 0.921 | 1.08 | 0.888 | 0.974 | 0.7 | 0.72 | 0.592 | 0.69 | – | – | – | – |
| NCI-H596 | – | – | – | – | 0.713 | 0.612 | 0.583 | 0.641 | 0.562 | 0.49 | 0.439 | 0.448 | 0.679 | 0.604 | 0.899 | 0.653 | 1.13 | 1.03 | 1.01 | 0.974 |
| NCI-H727 | 0.528 | 0.65 | 0.558 | 0.701 | 0.705 | 0.613 | 0.757 | 0.648 | – | – | – | – | 0.511 | 0.488 | 0.536 | 0.533 | – | 0.792 | 0.826 | 0.719 |
| NCI-H1563 | – | – | – | – | – | – | – | – | 0.802 | 0.655 | 0.744 | 0.669 | 0.698 | 0.643 | 0.598 | 0.37 | 1.09 | 0.862 | 1.07 | 0.635 |
| NCI-H1703 | – | – | – | – | 0.388 | 0.468 | 0.315 | 0.388 | – | – | – | – | – | – | – | – | 1.44 | 1.01 | 1.21 | 0.882 |
| NCI-H2342 | 0.45 | 0.509 | 0.497 | 0.487 | 0.447 | 0.441 | 0.46 | 0.396 | 0.798 | 0.745 | 0.779 | 0.835 | 0.572 | 0.562 | 0.629 | 0.551 | – | – | – | – |
| SW 900 | 0.528 | 0.481 | 0.512 | 0.465 | 0.766 | 0.883 | 0.698 | 0.99 | 0.487 | 0.48 | 0.47 | 0.499 | 0.644 | 0.527 | 0.722 | 0.457 | – | – | – | – |
